One series concerns OCT2 A270S variant. As to the kind of experiment: in vitro. The settings on record: human, Stereoselectivity OCT2_A270S, 100 μM racemic substance, two minutes, uptake ratio of enantiomers.
A further series deals with T1, OCT2 (wild-type) (Homo sapiens, UniProt O15244).
T1 sequence (O15244 1-555 S270A): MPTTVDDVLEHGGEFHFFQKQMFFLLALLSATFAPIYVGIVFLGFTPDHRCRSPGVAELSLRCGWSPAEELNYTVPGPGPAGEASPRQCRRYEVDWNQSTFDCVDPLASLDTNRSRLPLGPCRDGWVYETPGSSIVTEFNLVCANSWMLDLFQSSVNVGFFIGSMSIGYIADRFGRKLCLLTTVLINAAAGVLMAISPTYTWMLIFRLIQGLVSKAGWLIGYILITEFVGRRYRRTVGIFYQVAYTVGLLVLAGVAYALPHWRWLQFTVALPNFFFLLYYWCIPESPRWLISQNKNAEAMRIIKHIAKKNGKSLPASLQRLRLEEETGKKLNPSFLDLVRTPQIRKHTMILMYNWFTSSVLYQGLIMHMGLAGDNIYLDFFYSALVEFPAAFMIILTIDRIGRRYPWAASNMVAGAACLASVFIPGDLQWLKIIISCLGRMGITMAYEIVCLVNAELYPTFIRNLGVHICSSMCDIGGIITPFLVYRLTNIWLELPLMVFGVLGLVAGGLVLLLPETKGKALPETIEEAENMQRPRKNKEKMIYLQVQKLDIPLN
As to the kind of experiment: Stereoselective uptake into OCT2 (wild-type)-overexpressing HEK293 cells. The settings on record: human, Stereoselectivity OCT2_WT, 100 μM racemic substance, two minutes; uptake ratio of enantiomers, given as for (R).

For another series, the target named is DAT (Homo sapiens, UniProt Q01959). As to the kind of experiment: Stereoselective uptake into DAT-overexpressing HEK293 cells.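 Note: intracellular accumulation measured by chiral HPLC-MS/MS in stably transfected HEK293 cells, normalized to total protein.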 The settings on record: DAT; result in words.
Chain of DAT (Q01959 whole entry): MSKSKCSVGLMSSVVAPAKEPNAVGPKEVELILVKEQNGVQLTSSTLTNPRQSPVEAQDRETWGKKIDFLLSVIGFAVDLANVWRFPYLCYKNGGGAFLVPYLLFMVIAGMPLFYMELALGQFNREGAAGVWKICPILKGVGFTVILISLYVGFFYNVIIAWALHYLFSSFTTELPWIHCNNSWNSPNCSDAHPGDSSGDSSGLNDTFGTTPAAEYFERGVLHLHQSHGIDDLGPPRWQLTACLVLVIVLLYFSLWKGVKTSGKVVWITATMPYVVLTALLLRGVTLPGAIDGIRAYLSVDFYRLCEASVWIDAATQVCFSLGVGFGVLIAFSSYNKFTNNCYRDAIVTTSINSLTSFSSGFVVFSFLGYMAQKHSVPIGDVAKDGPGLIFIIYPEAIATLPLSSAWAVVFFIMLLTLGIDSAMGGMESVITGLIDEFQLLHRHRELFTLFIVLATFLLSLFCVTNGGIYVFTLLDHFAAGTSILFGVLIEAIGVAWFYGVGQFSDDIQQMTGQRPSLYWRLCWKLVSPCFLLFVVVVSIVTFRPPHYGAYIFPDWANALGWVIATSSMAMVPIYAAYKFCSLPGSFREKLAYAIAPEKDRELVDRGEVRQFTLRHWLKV
In the next series the target is SERT (Homo sapiens, UniProt P31645). As to the kind of experiment: Stereoselective uptake into SERT-overexpressing HEK293 cells.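 Note: uptake into HEK293 cells stably expressing human SERT over 2 min, enantiomers measured in cell lysate by chiral HPLC-MS/MS, normalized to total protein.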 The settings on record: SERT; result in words.
Chain of SERT (P31645 whole entry): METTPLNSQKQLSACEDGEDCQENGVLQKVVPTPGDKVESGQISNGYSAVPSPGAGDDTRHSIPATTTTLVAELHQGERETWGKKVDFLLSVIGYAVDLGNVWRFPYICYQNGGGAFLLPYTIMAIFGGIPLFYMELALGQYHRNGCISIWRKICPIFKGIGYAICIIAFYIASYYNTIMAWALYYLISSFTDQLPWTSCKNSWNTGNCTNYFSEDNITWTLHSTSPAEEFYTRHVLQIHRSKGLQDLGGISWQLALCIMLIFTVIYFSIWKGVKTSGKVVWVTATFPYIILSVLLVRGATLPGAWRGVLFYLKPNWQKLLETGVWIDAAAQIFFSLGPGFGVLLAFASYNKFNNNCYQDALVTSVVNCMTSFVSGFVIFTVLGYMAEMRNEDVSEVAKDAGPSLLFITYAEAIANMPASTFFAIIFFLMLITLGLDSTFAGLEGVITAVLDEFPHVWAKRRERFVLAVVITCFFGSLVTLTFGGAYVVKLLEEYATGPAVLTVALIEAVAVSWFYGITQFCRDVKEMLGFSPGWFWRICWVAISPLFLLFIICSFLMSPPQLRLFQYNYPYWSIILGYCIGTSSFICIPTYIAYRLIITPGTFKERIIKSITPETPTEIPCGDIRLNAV
Series [1] deals with OCT2 wild-type versus A270S variant. As to the kind of experiment: in vitro. The settings on record: human, Transporter selectivity, OCT2 wild-type versus A270S, 100 μM racemic substance, two minutes.
In another series the target is T2, OCT1 (Homo sapiens, UniProt O15245).
T2 sequence (O15245 1-554): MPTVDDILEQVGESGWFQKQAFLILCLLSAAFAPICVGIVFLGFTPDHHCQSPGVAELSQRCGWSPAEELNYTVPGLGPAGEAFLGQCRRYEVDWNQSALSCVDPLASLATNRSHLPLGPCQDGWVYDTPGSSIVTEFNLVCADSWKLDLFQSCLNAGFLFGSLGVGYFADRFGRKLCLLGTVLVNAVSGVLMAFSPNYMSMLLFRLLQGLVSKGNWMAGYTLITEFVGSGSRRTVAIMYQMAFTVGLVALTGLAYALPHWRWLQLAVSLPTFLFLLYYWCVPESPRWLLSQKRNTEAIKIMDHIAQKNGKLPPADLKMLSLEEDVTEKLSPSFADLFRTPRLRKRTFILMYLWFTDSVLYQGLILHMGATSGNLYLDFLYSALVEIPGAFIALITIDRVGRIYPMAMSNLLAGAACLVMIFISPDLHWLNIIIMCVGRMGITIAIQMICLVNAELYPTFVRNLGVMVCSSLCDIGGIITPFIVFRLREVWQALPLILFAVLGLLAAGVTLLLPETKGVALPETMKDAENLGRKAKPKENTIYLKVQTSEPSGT
As to the kind of experiment: Stereoselective uptake into OCT1-overexpressing HEK293 cells.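 Note: enantiomers quantified inside cells by chiral HPLC-MS/MS, uptake normalized to total protein from bicinchoninic acid assay, substrates applied in HBSS+ buffer.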 The settings on record: OCT1; result in words.

The target in the next series is T3, OCT2 (Homo sapiens, UniProt O15244).
T3 sequence (O15244 1-555 S270A): T1 sequence (O15244 1-555 S270A)
As to the kind of experiment: Stereoselective uptake into OCT2 (wild-type)-overexpressing HEK293 cells. The note with it: OCT2; for Clint ± SEM: quotient of vmax over Km; for selectivity ratio at 2 min: human, ratio between enantiomers.

The target in a further series is T4, OCT3 (Homo sapiens, UniProt O75751).
T4 sequence (O75751 1-556): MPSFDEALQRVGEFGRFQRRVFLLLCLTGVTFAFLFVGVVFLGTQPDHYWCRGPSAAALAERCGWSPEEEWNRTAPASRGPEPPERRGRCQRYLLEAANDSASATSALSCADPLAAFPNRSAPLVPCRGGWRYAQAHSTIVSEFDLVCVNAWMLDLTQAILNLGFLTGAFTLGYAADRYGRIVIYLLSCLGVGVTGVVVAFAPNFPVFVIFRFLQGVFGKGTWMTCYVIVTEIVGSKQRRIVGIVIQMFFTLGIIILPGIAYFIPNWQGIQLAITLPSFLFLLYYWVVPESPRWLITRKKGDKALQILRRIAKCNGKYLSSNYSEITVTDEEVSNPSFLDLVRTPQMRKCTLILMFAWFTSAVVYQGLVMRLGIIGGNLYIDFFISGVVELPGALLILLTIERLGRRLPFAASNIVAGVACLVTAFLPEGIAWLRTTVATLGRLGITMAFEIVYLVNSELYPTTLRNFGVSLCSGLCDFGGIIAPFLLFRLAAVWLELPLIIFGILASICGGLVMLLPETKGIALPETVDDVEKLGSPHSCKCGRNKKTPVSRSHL
As to the kind of experiment: Stereoselective uptake into OCT3-overexpressing HEK293 cells.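 Note: intracellular accumulation in HEK293 cells measured by chiral HPLC-MS/MS after a 2 min substrate exposure at 37 °C, uptake normalized to total protein (bicinchoninic acid assay).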 The note with it: OCT3; result in words.

Another series concerns the target NET (Homo sapiens, UniProt P23975). As to the kind of experiment: Stereoselective uptake into NET-overexpressing HEK293 cells.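 Note: intracellular enantiomers quantified in cell lysates by chiral HPLC-MS/MS after a 2 min substrate incubation, with uptake normalized to total cellular protein.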 The note with it: NET; result in words.

This note sets out measurements from article PMC9599461, “Stereoselectivity in the Membrane Transport of Phenylethylamine Derivatives by Human Monoamine Transporters and Organic Cation Transporters 1, 2, and 3” (Biomolecules, 2022).

SMILES strings stand for the structures.

Chain of NET (P23975 whole entry): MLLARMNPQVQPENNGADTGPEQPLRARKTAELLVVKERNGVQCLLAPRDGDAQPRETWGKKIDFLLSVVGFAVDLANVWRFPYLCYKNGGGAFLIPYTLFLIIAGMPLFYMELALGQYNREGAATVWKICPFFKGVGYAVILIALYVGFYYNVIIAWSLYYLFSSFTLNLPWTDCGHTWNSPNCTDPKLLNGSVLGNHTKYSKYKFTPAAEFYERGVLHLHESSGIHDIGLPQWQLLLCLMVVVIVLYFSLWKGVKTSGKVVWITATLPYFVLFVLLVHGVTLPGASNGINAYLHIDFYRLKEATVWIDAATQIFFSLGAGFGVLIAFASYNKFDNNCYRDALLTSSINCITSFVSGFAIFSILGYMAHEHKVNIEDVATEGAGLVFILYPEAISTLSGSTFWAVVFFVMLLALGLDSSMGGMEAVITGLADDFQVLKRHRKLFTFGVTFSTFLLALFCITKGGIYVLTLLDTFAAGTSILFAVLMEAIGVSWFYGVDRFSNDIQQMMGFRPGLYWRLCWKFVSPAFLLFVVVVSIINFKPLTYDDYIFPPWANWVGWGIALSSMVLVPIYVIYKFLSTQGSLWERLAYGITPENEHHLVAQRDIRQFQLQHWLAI
Protocol for NET: (§1) All transport experiments were carried out in HEK293 cells stably overexpressing human MATs or OCTs. […] All cells were regularly cultivated in DMEM supplemented with 10% (v/v) FCS, penicillin (100 U/mL) and streptomycin (100 μg/mL)and kept in culture for no longer than 30 passages.
(§2) For the uptake experiments, 300,000 cells were plated in poly-D-lysine precoated 24-well plates 48 h ahead of the transport experiment. On the day of experiment, cells were initially washed once with 37 °C pre-warmed HBSS+ (Hanks buffered salt solution supplemented with 10 mM HEPES) and subsequently incubated with the substrates dissolved in pre-warmed HBSS+ for exactly two minutes. Incubation was stopped by adding ice-cold HBSS+ followed by two washing steps. After this, cells were lysed with 80% acetonitrile containing 10 ng/mL milnacipran as internal standard for high-performance liquid chromatography coupled to tandem mass spectrometry (HPLC-MS/MS) analysis. For every experiment, two additional wells per cell line were lysed using RIPA buffer for protein quantification. Total protein was quantified using the bicinchoninic acid assay [42]. This was later used for normalization of the uptake data.
Intracellularly accumulated test substances were quantified by HPLC-MS/MS analysis using a Shimadzu Nexera HPLC system with a SIL-30AC autosampler, a CTO-20AC column oven, a LC-30AD pump, and a CBM-20A controller (Shimadzu, Kyoto, Japan). Stereoselective chromatography was carried out on a [sequence] CBH HPLC column (100 × 3 mm inner dimension with 5 μM particle size; Sigma-Aldrich, Darmstadt, Germany) with a corresponding 10 × 3 mm guard column. Reversed phased chromatography was carried out using an ammonium acetate (NH4Ac) buffered aqueous mobile phase with isopropyl alcohol (IPA) as organic solvent. […] The order of elution of the enantiomers was obtained from available reference literature [43] or by applying enantiopure reference compounds to the chiral HPLC. […] Given the structural similarity of the investigated substances and the fact that separation was performed on the same column with almost identical mobile phases, we assume that this order of elution for our compound set is always the (R)- before the (S)-enantiomer.
(§3) Detection was performed with an API 4000 tandem mass spectrometer (AB SCIEX, Darmstadt, Germany) operating in multiple-reaction-monitoring mode. Quantification was performed using the Analyst 1.6.2 software (AB SCIEX, Darmstadt, Germany) and quantified by comparison to standard curves with known concentrations.
All uptake data were normalized to protein content to account for variation in the number of seeded sells. Transporter-mediated net uptake was calculated by subtracting uptake into empty vector-transfected control cells from uptake into transporter-transfected cells. Kinetic parameters were then determined after non-linear regression following the Michaelis–Menten equation (v = vmax × [S]/(Km + [S])) using GraphPad Prism (Version 5.01 for Windows, GraphPad Software, La Jolla, CA, USA). Vmax refers to the maximum transport velocity and Km is defined as the substance concentration required to reach half of vmax. The intrinsic clearance Clint was calculated as the quotient of vmax over Km.
Protocol for SERT: as §1, §2
Intracellularly accumulated test substances were quantified by HPLC-MS/MS analysis using a Shimadzu Nexera HPLC system with a SIL-30AC autosampler, a CTO-20AC column oven, a LC-30AD pump, and a CBM-20A controller (Shimadzu, Kyoto, Japan). […] CBH HPLC column (100 × 3 mm inner dimension with 5 μM particle size; Sigma-Aldrich, Darmstadt, Germany) with a corresponding 10 × 3 mm guard column. Reversed phased chromatography was carried out using an ammonium acetate (NH4Ac) buffered aqueous mobile phase with isopropyl alcohol (IPA) as organic solvent. […] The order of elution of the enantiomers was obtained from available reference literature [43] or by applying enantiopure reference compounds to the chiral HPLC.
as §3
All uptake data were normalized to protein content to account for variation in the number of seeded sells. Transporter-mediated net uptake was calculated by subtracting uptake into empty vector-transfected control cells from uptake into transporter-transfected cells. […] Vmax refers to the maximum transport velocity and Km is defined as the substance concentration required to reach half of vmax. The intrinsic clearance Clint was calculated as the quotient of vmax over Km.

In the case of `COc1cc(C(O)CN)ccc1O` (stereo not shown) [Normetanephrine], the selectivity ratio at 2 min, 100 μM with OCT2 A270S variant (given as for (R)) worked out at 1.7; at OCT2 (wild-type) it was 1.91.

Regarding `CNCC(O)c1ccccc1` (stereo not shown) [Halostachine-1, Halostachine], the Saturable net uptake entry at DAT, on SERT, on OCT1, on OCT3 and at NET was “No saturable net uptake” in each case. Also, the selectivity ratio at 2 min, 100 μM in series [1] (given as for WT) was 1.02. The “Clint ± SEM” value at OCT2 was 25.7 mL × g Protein^−1 × min^−1. Also, the selectivity ratio at 2 min at OCT2 (Stereoselectivity ClInt, given as for (R) or for 1) was 1.89; at OCT2 (Stereoselectivity Km, given as for (S) or for 2 (second-eluting)), 1.5; at OCT2 (Stereoselectivity Vmax, given as for (R) or for 1) it was 1.26.

`CNCC(O)c1ccc(O)c(OC)c1` (stereo not shown) [Metanephrine]: the figures for the selectivity ratio at 2 min, 100 μM in the series with OCT2 A270S variant (given as for (R)) and on OCT2 (wild-type) were 2.26 and 2.78, respectively.

Turning to `NCC(O)c1ccccc1` (stereo not shown) [Bisnorephedrine], the selectivity ratio at 2 min, 100 μM in the series on OCT2 A270S variant (given as for (S)) is 1.09; at OCT2 (wild-type), 1.1.

Take `CNCC(O)c1ccccc1` (stereo not shown) [Halostachine]: the figures for the selectivity ratio at 2 min, 100 μM in the series on OCT2 A270S variant (given as for (R)) and on OCT2 (wild-type) were 1.32 and 1.42, respectively.

As for `CNCC(O)c1ccccc1` (stereo not shown) [Halostachine-2, Halostachine], the Saturable net uptake entry on DAT, on SERT, on OCT1, on OCT3 and at NET was “No saturable net uptake” in each case. Also, the selectivity ratio at 2 min, 100 μM in series [1] (given as for A270S) worked out at 1.05. The “Clint ± SEM” value on OCT2 was 13.6 mL × g Protein^−1 × min^−1.
